# Data from ChEMBL document CHEMBL3399941, “Discovery of heterocyclic sulfonamides as sphingosine 1-phosphate receptor 1 (S1P1) antagonists” (Bioorg Med Chem Lett, 2015).
# Key:
# [1] = biological target: Sphingosine 1-phosphate receptor 1 (Homo sapiens, UniProt P21453); test: Antagonist activity against S1P1R in human U2OS cells expressing beta-arrestin/green fluorescent protein assessed as effect on S1P-induced beta-arrestin GFP relocalization incubated for 30 mins by Hoechst 33342 staining based receptor translocation assay; assay type: cell-based
# Sequence of Sphingosine 1-phosphate receptor 1 (P21453 whole entry): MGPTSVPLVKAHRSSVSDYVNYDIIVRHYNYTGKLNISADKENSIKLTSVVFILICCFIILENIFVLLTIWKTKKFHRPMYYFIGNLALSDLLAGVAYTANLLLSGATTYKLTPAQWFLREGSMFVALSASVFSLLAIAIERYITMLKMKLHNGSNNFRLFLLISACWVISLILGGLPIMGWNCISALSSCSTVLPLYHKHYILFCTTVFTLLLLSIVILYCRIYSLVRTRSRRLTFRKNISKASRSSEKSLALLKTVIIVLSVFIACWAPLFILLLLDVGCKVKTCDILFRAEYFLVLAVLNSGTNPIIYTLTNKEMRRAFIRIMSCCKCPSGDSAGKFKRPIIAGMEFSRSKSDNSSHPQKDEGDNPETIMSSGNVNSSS
# [2] = (§1) Intrinsic clearance in human liver microsomes; assay type: ADME; conditions: liver microsomes, read-out: CLH
# [3] = Intrinsic clearance in human hepatocytes assessed per 10^6 cells; assay type: ADME, cell-based, Hepatocyte; conditions: read-out: CLH
# [4] = Solubility in pH 7.4 buffer; assay type: physicochemical
# Rattus norvegicus [5] = test: Oral bioavailability in rat at 3 mg/kg; assay type: ADME, organism-based; conditions: in vivo
# [6] = Apparent permeability from apical to basolateral side in human Caco2 cells; assay type: ADME, cell-based; conditions: Caco-2
# [7] = Protein binding in rat plasma assessed as unbound fraction; assay type: ADME, cell-free
# [8] = Protein binding in human plasma assessed as unbound fraction; assay type: ADME, cell-free
# [9] = Cmax in rat at 3 mg/kg, po; assay type: ADME, organism-based; set-up: dose 3 mg/kg, route oral; conditions: in vivo
# Liver microsome = test: as §1; assay type: ADME; conditions: microsomes
# [10] = Apparent permeability from basolateral to apical side in human Caco2 cells; assay type: ADME, cell-based; conditions: Caco-2
# [11] = Intrinsic clearance in rat hepatocytes assessed per 10^6 cells; assay type: ADME, cell-based, Hepatocyte; conditions: read-out: CLH
# [12] = Lipophilicity, log D of the compound; assay type: physicochemical; conditions: octanol/water
# [13] = Volume of distribution at steady state in rat at 1 mg/kg, iv; assay type: ADME, organism-based; set-up: dose 1 mg/kg, route intravenous; conditions: in vivo, read-out: Vdss
# [14] = Half life in rat at 1 mg/kg, iv; assay type: ADME, organism-based; set-up: dose 1 mg/kg, route intravenous; conditions: in vivo
# Rattus norvegicus [15] = test: AUC in rat at 3 mg/kg, po; assay type: ADME, organism-based, Plasma; set-up: dose 3 mg/kg, route oral; conditions: in vivo
EC50 [1] [nM],Structure (SMILES),further results
310,CCc1[nH]nc(C(C)NS(=O)(=O)c2ccc(Cl)cc2)c1CC (racemic),microsomal CLint [2]: > 100 µL/min/mg
2690,CCCn1c(C)nnc1C(Cc1ccccc1)NS(=O)(=O)c1ccc(Cl)cc1 (racemic),–
2370,CCn1c(C)nnc1C(Cc1cccnc1)NS(=O)(=O)c1ccc(Cl)cc1 (racemic),–
1830,Cc1nnc(C(Cc2ccccc2)NS(=O)(=O)c2ccc(Cl)cc2)n1C (racemic),–
460,CCn1c(C)nnc1C(Cc1ccccc1)NS(=O)(=O)c1ccc(Cl)cc1 (racemic),–
2250,C=CCC(NS(=O)(=O)c1ccc(Cl)cc1)c1nnc(C)n1CC (racemic),–
3030,CCc1onc(C(C)NS(=O)(=O)c2ccc(Cl)cc2)c1CC (racemic),microsomal CLint [2]: > 100 µL/min/mg
1610,Cc1cnc(C(Cc2ccccc2)NS(=O)(=O)c2ccc(Cl)cc2)n1C (racemic),microsomal CLint [2]: > 100 µL/min/mg
6190,CCCC(NS(=O)(=O)c1ccc(Cl)cc1)c1nnc(C)n1CC (racemic),–
15200,CCc1nnc(C(Cc2ccccc2)NS(=O)(=O)c2ccc(Cl)cc2)o1 (racemic),microsomal CLint [2]: > 100 µL/min/mg
220,CCc1nnc(C(Cc2ccccc2)NS(=O)(=O)c2ccc(Cl)cc2)n1CC (racemic),–
> 100000,Cc1ncc(C(Cc2ccccc2)NS(=O)(=O)c2ccc(Cl)cc2)n1C (racemic),microsomal CLint [2]: > 100 µL/min/mg
6340,Cc1nnc(C(Cc2ccccc2)NS(=O)(=O)c2ccc(Cl)cc2)n1C(C)C (racemic),–
340,CCc1nnc(C(Cc2ccccc2)NS(=O)(=O)c2ccc(Cl)cc2)n1C (racemic),–
> 100000,Cc1nnc(C(Cc2ccccc2)NS(=O)(=O)c2ccc(Cl)cc2)n1Cc1ccccc1 (racemic),–
1030,C=CCSc1nnc(C(Cc2ccccc2)NS(=O)(=O)c2ccc(Cl)cc2)n1C (racemic),–
> 33000,CCc1nnc([C@H](C)NS(=O)(=O)c2ccc(Cl)cc2)n1CC,–
22100,Cn1cnnc1C(Cc1ccccc1)NS(=O)(=O)c1ccc(Cl)cc1 (racemic),–
490,CCn1c(C)nnc1C(Cc1ccc(F)cc1)NS(=O)(=O)c1ccc(Cl)cc1 (racemic),–
3230,CCCCc1nnc(C(Cc2ccccc2)NS(=O)(=O)c2ccc(Cl)cc2)n1C (racemic),–
410,CCc1nnc(C(C)NS(=O)(=O)c2ccc(Cl)cc2)n1CC (racemic),–
670,CCn1c(C)nnc1C(C)NS(=O)(=O)c1ccc(Cl)cc1 (racemic),hepatocyte CLint [3]: < 2 µL/min/1e6 cells; microsomal CLint [2]: < 5 µL/min/mg; solubility [4]: 380 µM
7690,CCn1c(C)nnc1C(CC1CC1)NS(=O)(=O)c1ccc(Cl)cc1 (racemic),–
3170,Cn1c(C(Cc2ccccc2)NS(=O)(=O)c2ccc(Cl)cc2)nnc1C(F)(F)F (racemic),–
250,CCc1nnc([C@@H](C)NS(=O)(=O)c2ccc(Cl)cc2)n1CC,F (Rattus norvegicus [5]): 11%; Papp A→B [6]: 11.1 ×10⁻⁶ cm/s; fraction unbound [7]: 0.5; fraction unbound [8]: 0.34; Cmax [9]: 1600 nM; microsomal CLint (Liver microsome): 5.5 µL/min/mg; Papp B→A [10]: 22.5 ×10⁻⁶ cm/s; hepatocyte CLint [11]: 10.2 µL/min/1e6 cells; logD [12]: 1.4; Vd [13]: 0.7 L/kg; half-life [14]: 1.4 h; solubility [4]: > 600 µM; AUC (Rattus norvegicus [15]): 2.7 µM·h
720,CCc1snc(C(C)NS(=O)(=O)c2ccc(Cl)cc2)c1CC (racemic),microsomal CLint [2]: > 100 µL/min/mg
